One assay relates to GSE.20D11 TCR. Kind of assay: HLA-DQ8 SABR-II (+ HLA-A2.1 SABR) library screen, enrichment score. In kind it is cell-based, human. The text has this: To test whether HLA-DQ8 SABR-II could be used for antigen discovery, we curated a list of insulin B, insulin C and HIP epitopes published by Wiles et al.[58] and cloned them into the DQ8 SABR-II backbone using the same pooled cloning strategy as the I-Ag7 SABR-II library (Supplementary Table 2). Furthermore, we combined SABR-I (the HLA-A*0201 library reported in our previous work[27]) and SABR-II libraries at a cellular level and screened against the GSE.20D11 TCR.
(§1) To generate the I-Ag7 restricted SABR library, we combined all Immune Epitope Database epitopes with a published immunopeptidome generated by Wan et al.[51]. Sequences were filtered remove all post-translational modifications except deamidation and HIPs and trimmed between 9–25 amino acid lengths. For the insulin C HIP and HLA-DQ8 library, non-contiguous epitopes from Wiles et al.[66] as well as all Immune Epitope Database epitopes were combined to generate the epitope list. Epitope sequences were back-translated using the backtranslate_fast.py script.
(§2) For SABR library screens, 3 × 10^6 NFAT–GFP Jurkat cells expressing the SABR library were labeled with CellTrace Violet (BioLegend) according to the manufacturer’s protocol before incubation with 3 × 10^6 Jurkat cells expressing the TCR of interest. These mixtures were incubated in a six-well plate for 16–20 h. Cells were stained with anti-CD69-APC-Cy7 where indicated (BioLegend) and the top 1–2% of GFP^+CD69^+ cells were sorted for genomic DNA extraction, indexing and sequencing (see below). Multiplexed assays were scaled on a per-TCR basis (for example 3 × 10^6 for each of three TCRs against 9 × 10^6 library cells). For single SABR assays, unless otherwise defined, 5 × 10^5 SABR expressing NFAT–GFP Jurkat cells (or 5KC cells) were labeled with CellTrace Violet (BioLegend) according to the manufacturer’s protocol before incubation with 5 × 10^5 TCR-expressing Jurkat cells (or 5KC cells) in a round-bottom 96-well plate for 16–20 h. Cells were stained with anti-CD69-APC-Cy7 when indicated and acquired on the Attune NxT flow cytometer (Thermo Fisher Scientific). All flow analysis was performed using FlowJo (BD). For Daudi cell co-culture, 1 × 10^6 Jurkat cells expressing the TCR of interest were incubated with 1 × 10^6 Daudi cells expressing a SABR of interest for 3 days. On day 3, cells were labeled with anti-RT1B-PE and anti-Fas-APC-Cy7 before being acquired on the Attune NxT flow cytometer.
Genomic DNA was extracted from sorted cells immediately after sorting, using the PureLink genomic DNA extraction kit (Life Technologies). The integrated SABR vectors were amplified with KOD polymerase (Millipore) and two rounds of amplification. In the first round, IDT-UD-SABR-C2-F and IDT-UD-SABR-C2-R primers were used to amplify the epitope. In the second round, UDI0001-R and UDI0001-F primers (representative of index 1) were used to add Illumina unique dual indexes (UDIs) to the amplicons. A different UDI was used for each sample. The reactions were pooled and purified with the NucleoSpin gel and PCR purification kit (Takara). The purified PCR product was checked before sequencing using 2% agarose gel and subjected to sequencing on a HiSeq4000 (Fulgent Genetics). Unaligned reads generated by the sequencer were stored in FASTQ files. FASTQ files were concatenated to generate one file for read1 and read2 each. The sequences were demultiplexed into individual indexes using demultiplex_dual.py. Epitopes were extracted and scored using epitope_extract_fastq_v1.1.py and merge_counts_split_v2.1.py. The ES was calculated using Microsoft Excel (Microsoft) workbooks.

A further assay has as its system TCR2. Kind of assay: I-Ag7 SABR-II HIP library screen, enrichment score. Conditions: TCR_Mean of 3 replicates minus PREDICTED_TCR (slope 0.896988, intercept 4.04602e-5). In kind it is cell-based, mouse.
Excerpt: (§3) Given the predominance of HIP-reactive TCRs, we hypothesized that there may be other TCRs that respond to HIPs that were not encoded in our initial library configuration. While the initial I-Ag7 SABR-II library consisted of a number of HIPs, HIP formation is thought to be more widespread in pancreatic β-cells[52],[70]. Therefore, we sought to construct a defined, HIP-focused library to probe whether there were any undiscovered HIP-reactive TCRs that could be recognized by the clonally expanded TCR in our dataset. To test this, we utilized a published proteomic dataset, which predicted that several proteins that were highly expressed in secretory granules of β-cells may contribute to HIP formation. Using their predictions, we built a theoretical HIP library, in which all possible ‘left’ halves of the insulin C chain derived from natural cleavage products were fused to ‘right’ halves derived from secretory granule proteins (Fig. 5a). This 2,561-epitope library (12–25 amino acids per epitope) consisted of only HIPs and a small number of positive control epitopes (Supplementary Table 5). We screened the top three clonally expanded TCRs (TCR1, TCR2 and TCR3) against this library, as these TCRs had not been de-convoluted using the original library. […] To confirm that the HIP itself was important for the cognate interaction, we cloned single 14-mer epitopes into SABR-IIs consisting of seven amino acids of the left portion of the HIP and seven amino acids of the right portion of the HIP. In this way, no nine amino acids from either peptide sequence alone could occupy the binding pocket of I-Ag7, ensuring that TCR reactivity spanned the HIP junction. […] Of note, in all the epitopes that were tested, the ‘left’ half derived from insulin C was conserved, whereas the ‘right’ halves were derived from several other proteins (Fig. 5d). […] Moreover, the promiscuous binding of TCR3 to HIPs corroborates evidence from other NOD mouse-derived TCRs reacting to multiple HIPs[72].
as §1
as §2, with “cytometer. […]” for “cytometer.”

For a further assay, the system named is TCR1. The experiment in a line: I-Ag7 SABR-II HIP library screen, enrichment score. In kind it is cell-based, mouse. Conditions: TCR_Mean of 3 replicates minus PREDICTED_TCR (slope 0.931777, intercept 2.67961e-5).
Excerpt: as §3, §1
as §2, with “cytometer. […]” for “cytometer.”

For a further assay, the system named is TCR15. Kind of assay: Single SABR-II co-incubation, NFAT-GFP Jurkat. Format: cell-based, mouse. The settings on record: TCR 15, Fig 3B, 18 h.
Excerpt: (§4) We performed systematic screening of the cloned TCRs against the I-Ag7 SABR-II library. Several TCRs along with a positive control (such as BDC2.5 or 4-8Ins) were screened individually against the library for each sort (Extended Data Fig. 6a and Supplementary Table 4). High- and low-confidence ES zones for each screened TCR were defined by the ES values of the control TCR’s cognate epitopes. For all putative cognate epitopes, single SABR-IIs were constructed, expressed in NFAT–GFP Jurkat cells and used for co-incubation with the corresponding TCRs. Co-incubation assays that yielded a GFP signal higher than that obtained in assays with no TCR were determined to be positive and the epitopes deemed true cognate ligands (Extended Data Fig. 6b,c). Using this strategy, we obtained epitopes in the high-confidence zone for eight TCRs (Fig. 3a and Extended Data Fig. 6b,d). Among numerous altered peptide ligands (APLs), these TCRs recognized the physiological InsC-ChgA HIP ([…] and analogs, recognized by TCR5, TCR6B, TCR9 and TCR34), InsC-Iapp HIP ([…] and analogs, recognized by TCR4 and TCR15) and InsB9:23 ([…] and analogs recognized by TCR24 and TCR37). These cognate high-confidence hits were validated using single SABR-II co-incubation assays (Fig. 3b and Extended Data Fig. 7a). Further validations using in vitro mouse interleukin-2 (mIL-2) secretion by TCR-expressing 5KC reporter cells[13] or CD25 expression by TCR-expressing splenic CD4^+ T cells upon stimulation with the cognate epitope were performed (Extended Data Fig. 7b,c). Furthermore, low-confidence hits were called for ten TCRs and tested in co-incubation assays.
as §2

For another assay, the system named is TCR4. The experiment in a line: Single SABR-II co-incubation, NFAT-GFP Jurkat. Format: cell-based, mouse. Conditions: TCR 4.
Excerpt: as §4, §2

In a further assay the test system is Jurkat cells, No TCR. Kind of assay: Single SABR-II co-incubation, background without TCR. In kind it is cell-based, human. The settings on record: No TCR.
Excerpt: as §4, §2

The mark [1] stands for this setting: ES = TCRObserved - TCRPredicted, TCRPredicted = LIBObserved x SLOPE + INTERCEPT, SLOPE 1.10224, INTERCEPT -1.65707e-5.
Setting [2] is: HLA-A2.1 and HLA-DQ8 SABR libraries screened simultaneously, reads mapped to DQ8 library, one biological experiment.
Where [3] appears, read: Ext. Data Fig. 6C, 18-20 hr, technical replicate 1.
[4] abbreviates: Ext. Data Fig. 6C, 18-20 hr, technical replicate 2.
[5] abbreviates: Fig 3B, 18 h, biological replicate 1.
[6] abbreviates: Fig 3B, 18 h, biological replicate 2.
The mark [7] stands for this setting: Fig 3B, 18 h, biological replicate 3.

As to AAPSVFIFPPSDEQLK, the “Enrichment score” value in the assay with GSE.20D11 TCR (setting [1]) and with GSE.20D11 TCR (setting [2]) was -0.0003017 each time.

In the case of AASKERSGVSL, the “Enrichment score” value in the assay with GSE.20D11 TCR (setting [1]) and with GSE.20D11 TCR (setting [2]) was 3.541e-5 in each case.

As for APKRPPSAF, the “Enrichment score” value in the assay with GSE.20D11 TCR (setting [1]) and in the assay with GSE.20D11 TCR (setting [2]) was 2.7496e-5 each time.

Regarding CDGERPTLAFLQDVM, the “Enrichment score” value in the assay with GSE.20D11 TCR (setting [1]) and in the assay on GSE.20D11 TCR (setting [2]) was -0.0002437 throughout.

As to EVEDPQVAQLNAARDPNRESLD, the “Enrichment score” value with TCR2 is listed as 0.0005844.

Regarding EVEDPQVEQLEGEDDPDRSMK, in the assay with TCR2, the “Enrichment score” value is recorded as 0.000574.

For EVEDPQVEQLELSGKEVKGEEKGE, the “Enrichment score” value in the assay with TCR1 was 0.0005139.

For EVEDPQVEWSRMDQLAKELT, the “Enrichment score” value with TCR1 was 0.0005047.

EVQEKPQELTDQDQSQEESQEG: in the assay on TCR1, the “Enrichment score” value was 0.0005738.

Consider GAGDLQTLALEVEEEGSANRRAED, for which the “Enrichment score” value with TCR2 is 0.0005985.

For GDLQTLALEVAQSGKEVKGEEKGE, the “Enrichment score” value in the assay with TCR1 was 0.0005301.

Regarding LQTLALNAARD, the “%GFP+CD69+ cells of SABR-NFAT-GFP-Jurkat cells” value (“%GFP+CD69+ cells” for short) was 43.67% in the assay on TCR15 (biological replicate 1); 48.77% in the assay on TCR15 (biological replicate 2); 51.63% with TCR15 (biological replicate 3); 22.3% in the assay on TCR4 (setting [3]); 22% in the assay with TCR4 (setting [4]); 42.4% in the assay with TCR4 (setting [5]). Moreover, the “%GFP+CD69+ cells” value with TCR4 (setting [6]) was 41.7%; in the assay with TCR4 (setting [7]), 45.77%; in the assay on Jurkat cells, No TCR (setting [3]), 4.02%; in the assay on Jurkat cells, No TCR (setting [4]), 3.97%; with Jurkat cells, No TCR (setting [5]), 2.49%; in the assay with Jurkat cells, No TCR (setting [6]), 7.87%. Moreover, in the assay on Jurkat cells, No TCR (setting [7]), the “%GFP+CD69+ cells” value was 3.83%.

Consider PGDLQTLALEVALLDEGHYPVRES, for which the “Enrichment score” value in the assay with TCR2 is reported as 0.0008737.

In the case of SPGDLQTLALEVPSPKESKEADVA, the “Enrichment score” value in the assay with TCR1 is on record as 0.0005282.

For the sequence VAQLELGGGPGASEASAKKKDESV, the “Enrichment score” value with TCR2 was 0.0007771.

The values are drawn from publication PMC11093748, “De novo identification of CD4^+ T cell epitopes” (Nature Methods, 2024).
